Experiments:
[1] = system: non-reducing saccharide-forming enzyme; format: biochemical, Rhizobium sp. M-11; conditions: for Formation of novel saccharide from substrate / Percentage of newly-formed saccharide (P I to P V) in reaction product: 20% substrate, 40° C., pH 7.0, 48 hours; for Percentage of remaining substrate in reaction product: non-reducing saccharide-forming enzyme, 48 h, pH 7; for Percentage of newly-formed saccharide (P I to P V) in reaction product: 2 units per g substrate, HPLC
Description: An aqueous solution containing 20% glucose, maltose, maltotriose, maltotetraose, maltopentaose, maltohexaose or maltoheptaose as a substrate was prepared, and mixed with 2 units per g substrate, d.s.b., of the purified enzyme preparation obtained in Experiment 2, and the resultant mixture was subjected to an enzymatic reaction at 40° C. and pH 7.0 for 48 hours. The reaction mixture was desalted and analyzed on high-performance liquid chromatography (HPLC) using "Wakobeads WB-T-330 column", a product of Wako Pure Chemical Industries Ltd., Tokyo, Japan. The HPLC procedure was conducted at an ambient temperature and a flow rate of 0.5 ml/min of water as an eluent, and "RI-8012", a differential refractometer commercialized by Tosho Corporation, Tokyo, Japan, was used for analyzing reaction products.

[2] = Reducing power by Somogyi-Nelson's method expressed as DE; format: physicochemical; conditions: products of Examples A
Description: The reducing powders of these novel saccharides were determined on the Somogyi-Nelson's method and expressed by DE (dextrose equivalent).

[3] = Maillard reaction with glycine; format: physicochemical; conditions: 1% glycine, 10% saccharide, 50 mM phosphate buffer pH 7.0, 100° C. for 90 min; absorbance in 1-cm cell
Description: As a control, maltotriose, maltotetraose, maltopentaose, maltohexaose and maltoheptaose as a material for the saccharide preparations were similarly treated as above, and measured their absorbances were measured at a wave length of 480 nm.

Structure (SMILES)	Formation of novel saccharide from substrate [1]	Percentage of remaining substrate in reaction product [1] [%]	DE of product [2]	Percentage of newly-formed saccharide (P I to P V) in reaction product [1] [%]	Coloration degree (480 nm) [3]	Initial reducing power that diminishes by the enzymatic reaction ([1]; substrate of the present enzyme)
OC[C@H]1O[C@H](O[C@H]2[C@H](O)[C@@H](O)C(O)O[C@@H]2CO)[C@H](O)[C@@H](O)[C@@H]1O (mixture of isomers) [Maltose]	no novel saccharide was formed	100.0				
OC[C@H]1O[C@H](O[C@H]2O[C@H](CO)[C@@H](O[C@H]3O[C@H](CO)[C@@H](O[C@H]4O[C@H](CO)[C@@H](O[C@H]5O[C@H](CO)[C@@H](O)[C@H](O)[C@H]5O)[C@H](O)[C@H]4O)[C@H](O)[C@H]3O)[C@H](O)[C@H]2O)[C@H](O)[C@@H](O)[C@@H]1O [Example A-5]			lower than 0.2			
OC[C@H]1OC(O)[C@H](O)[C@@H](O)[C@@H]1O (stereo partly drawn) [Glucose]	no novel saccharide was formed	100.0				
OC[C@H]1O[C@H](O[C@H]2[C@H](O)[C@@H](O)[C@@H](O[C@H]3[C@H](O)[C@@H](O)[C@@H](O[C@H]4[C@H](O)[C@@H](O)[C@@H](O[C@H]5[C@H](O)[C@@H](O)[C@@H](O[C@H]6[C@H](O)[C@@H](O)[C@@H](O[C@H]7[C@H](O)[C@@H](O)C(O)O[C@@H]7CO)O[C@@H]6CO)O[C@@H]5CO)O[C@@H]4CO)O[C@@H]3CO)O[C@@H]2CO)[C@H](O)[C@@H](O)[C@@H]1O (stereo partly drawn) [Maltoheptaose]		6.7		93.4	0.271	
OC[C@H]1O[C@H](O[C@H]2[C@H](O)[C@@H](O)[C@@H](O[C@H]3[C@H](O)[C@@H](O)[C@@H](O[C@H]4[C@H](O)[C@@H](O)[C@@H](O[C@H]5[C@H](O)[C@@H](O)[C@@H](O[C@H]6[C@H](O)[C@@H](O)C(O)O[C@@H]6CO)O[C@@H]5CO)O[C@@H]4CO)O[C@@H]3CO)O[C@@H]2CO)[C@H](O)[C@@H](O)[C@@H]1O (stereo partly drawn) [Maltohexaose]		6.5		93.5	0.318	
OC[C@H]1O[C@H](O[C@H]2[C@H](O)[C@@H](O)[C@@H](O[C@H]3[C@H](O)[C@@H](O)[C@@H](O[C@H]4[C@H](O)[C@@H](O)[C@@H](O[C@H]5[C@H](O)[C@@H](O)C(O)O[C@@H]5CO)O[C@@H]4CO)O[C@@H]3CO)O[C@@H]2CO)[C@H](O)[C@@H](O)[C@@H]1O (stereo partly drawn) [Maltopentaose]		7.3		92.7	0.369	about 93%
OC[C@H]1O[C@H](O[C@H]2[C@H](O)[C@@H](O)[C@@H](O[C@H]3[C@H](O)[C@@H](O)[C@@H](O[C@H]4[C@H](O)[C@@H](O)C(O)O[C@@H]4CO)O[C@@H]3CO)O[C@@H]2CO)[C@H](O)[C@@H](O)[C@@H]1O (stereo partly drawn) [Maltotetraose]		14.4		85.6	0.475	
OC[C@H]1O[C@H](O[C@H]2[C@H](O)[C@@H](O)[C@@H](O[C@H]3[C@H](O)[C@@H](O)C(O)O[C@@H]3CO)O[C@@H]2CO)[C@H](O)[C@@H](O)[C@@H]1O (stereo partly drawn) [Maltotriose]		65.0		35.0	0.623	

From US5922580A, “Non-reducing saccharide-forming enzyme, its preparation and uses” (priority 1992, dated 1999)
